According to the NIST ThermoML archive (doi:10.1016/j.jct.2016.03.026):

Assay: xn = mol fraction of the nth substance listed
Details: 293.15 K, Fluid (supercritical or subcritical phases), Vibrating tube method, x1 = 0.97

O=C=O [carbon dioxide] + CO
Details | mass density [kg/m3]
8600 kPa | 847.4
8625 kPa | 847.69
8650 kPa | 848.04
8675 kPa | 848.37
8700 kPa | 848.68
8725 kPa | 849.03
8750 kPa | 849.37
8775 kPa | 849.67
8800 kPa | 849.99
8825 kPa | 850.29
8850 kPa | 850.6
8875 kPa | 850.92
8900 kPa | 851.22
8925 kPa | 851.5
8950 kPa | 851.81
8975 kPa | 852.08
9000 kPa | 852.41
9025 kPa | 852.71
9050 kPa | 852.98
9075 kPa | 853.28
9100 kPa | 853.57
9125 kPa | 853.85
9150 kPa | 854.08
9175 kPa | 854.24
9200 kPa | 854.32
9225 kPa | 854.58
9250 kPa | 854.9
9275 kPa | 855.22
9300 kPa | 855.55
9325 kPa | 855.89
9350 kPa | 856.22
9375 kPa | 856.46
9400 kPa | 856.82
9425 kPa | 857.09
9450 kPa | 857.44
9475 kPa | 857.69
9500 kPa | 858.02
9525 kPa | 858.28
9550 kPa | 858.59
9575 kPa | 858.84
9600 kPa | 859.17
9625 kPa | 859.48
9650 kPa | 859.74
9675 kPa | 860.01
9700 kPa | 860.28
9725 kPa | 860.54
9750 kPa | 860.76
9775 kPa | 860.99
9800 kPa | 861.24
9825 kPa | 861.54
9850 kPa | 861.78
9875 kPa | 862
9900 kPa | 862.27
9925 kPa | 862.54
9950 kPa | 862.76
9975 kPa | 863.01
10000 kPa | 863.3
10025 kPa | 863.5
10050 kPa | 863.76
10075 kPa | 864
10100 kPa | 864.22
10125 kPa | 864.49
10150 kPa | 864.74
10175 kPa | 865.06
10200 kPa | 865.34
10225 kPa | 865.63
10250 kPa | 865.87
10275 kPa | 866.12
10300 kPa | 866.45
10325 kPa | 866.67
10350 kPa | 866.94
10375 kPa | 867.18
10400 kPa | 867.43
10425 kPa | 867.68
10450 kPa | 867.99
10475 kPa | 868.24
10500 kPa | 868.43
10525 kPa | 868.74
10550 kPa | 868.99
10575 kPa | 869.23
10600 kPa | 869.48
10625 kPa | 869.76
10650 kPa | 869.97
10675 kPa | 870.3
10700 kPa | 870.54
10725 kPa | 870.79
10750 kPa | 871.03
10775 kPa | 871.28
10800 kPa | 871.52
10825 kPa | 871.77
10850 kPa | 872.01
10875 kPa | 872.27
10900 kPa | 872.51
10925 kPa | 872.75
10950 kPa | 873
10975 kPa | 873.24
11000 kPa | 873.49
11025 kPa | 873.73
11050 kPa | 873.98
11075 kPa | 874.22
11100 kPa | 874.47
11125 kPa | 874.72
11150 kPa | 874.96
11175 kPa | 875.21
11200 kPa | 875.45
11225 kPa | 875.7
11250 kPa | 875.94
11275 kPa | 876.2
11300 kPa | 876.43
11325 kPa | 876.68
11350 kPa | 876.93
11375 kPa | 877.16
11400 kPa | 877.38
11425 kPa | 877.58
11450 kPa | 877.85
11475 kPa | 878.07
11500 kPa | 878.33
11525 kPa | 878.56
11550 kPa | 878.81
11575 kPa | 879
11600 kPa | 879.3
11625 kPa | 879.46
11650 kPa | 879.71
11675 kPa | 879.95
11700 kPa | 880.2
11725 kPa | 880.38
11750 kPa | 880.63
11775 kPa | 880.86
11800 kPa | 881.1
11825 kPa | 881.34
11850 kPa | 881.54
11875 kPa | 881.77
11900 kPa | 882
11925 kPa | 882.25
11950 kPa | 882.46
11975 kPa | 882.66
12000 kPa | 882.9
12025 kPa | 883.12
12050 kPa | 883.38
12075 kPa | 883.57
12100 kPa | 883.79
12125 kPa | 884.05
12150 kPa | 884.26
12175 kPa | 884.46
12200 kPa | 884.7
12225 kPa | 884.95
12250 kPa | 885.18
12275 kPa | 885.36
12300 kPa | 885.6
12325 kPa | 885.85
12350 kPa | 886.09
12375 kPa | 886.26
12400 kPa | 886.49
12425 kPa | 886.67
12450 kPa | 886.91
12475 kPa | 887.16
12500 kPa | 887.33
12525 kPa | 887.57
12550 kPa | 887.8
12575 kPa | 887.98
12600 kPa | 888.22
12625 kPa | 888.41
12650 kPa | 888.63
12675 kPa | 888.88
12700 kPa | 889.11
12725 kPa | 889.29
12750 kPa | 889.53
12775 kPa | 889.77
12800 kPa | 889.94
12825 kPa | 890.19
12850 kPa | 890.37
12875 kPa | 890.6
12900 kPa | 890.84
12925 kPa | 891.01
12950 kPa | 891.25
12975 kPa | 891.46
13000 kPa | 891.66
13025 kPa | 891.9
13050 kPa | 892.08
13075 kPa | 892.32
13100 kPa | 892.5
13125 kPa | 892.74
13150 kPa | 892.96
13175 kPa | 893.13
13200 kPa | 893.3
13225 kPa | 893.53
13250 kPa | 893.74
13275 kPa | 893.95
13300 kPa | 894.19
13325 kPa | 894.36
13350 kPa | 894.53
13375 kPa | 894.75
13400 kPa | 894.97
13425 kPa | 895.18
13450 kPa | 895.34
13475 kPa | 895.52
13500 kPa | 895.75
13525 kPa | 895.96
13550 kPa | 896.13
13575 kPa | 896.33
13600 kPa | 896.51
13625 kPa | 896.67
13650 kPa | 896.86
13675 kPa | 897.09
13700 kPa | 897.29
13725 kPa | 897.47
13750 kPa | 897.68
13775 kPa | 897.85
13800 kPa | 898.05
13825 kPa | 898.26
13850 kPa | 898.41
13875 kPa | 898.62
13900 kPa | 898.8
13925 kPa | 898.97
13950 kPa | 899.2
13975 kPa | 899.38
14000 kPa | 899.55
14025 kPa | 899.76
14050 kPa | 899.94
14075 kPa | 900.17
14100 kPa | 900.34
14125 kPa | 900.51
14150 kPa | 900.7
14175 kPa | 900.95
14200 kPa | 901.13
14225 kPa | 901.31
14250 kPa | 901.48
14275 kPa | 901.66
14300 kPa | 901.83
14325 kPa | 902.05
14350 kPa | 902.18
14375 kPa | 902.38
14400 kPa | 902.56
14425 kPa | 902.77
14450 kPa | 902.92
14475 kPa | 903.13
14500 kPa | 903.28
14525 kPa | 903.44
14550 kPa | 903.67
14575 kPa | 903.82
14600 kPa | 904.05
14625 kPa | 904.2
14650 kPa | 904.42
14675 kPa | 904.58
